# According to US20030073618A1, “Compounds comprising disulfide-containing peptides and nitrogenous bases, and medical uses thereof” (priority 2001, published 2003):
# Marks after values point to notes of the source that are not given here.
# How the values were obtained:
# [1] = test system: white rats with DMNA-induced liver cirrhosis; assay: Experimental dimethylnitrosamine (DMNA)-induced liver cirrhosis in rats; assay type: in vivo
# Description: The method of Jezequel, A. M. et al. was used to induce liver cirrhosis in the rats. (Dimethylnitrosamine-induced cirrhosis. Evidence for an immunological mechanism. J. […] DMNA was dissolved by normal saline. To obtain considerable cirrhosis 4 such injection cycles were sufficient. For morphologic examination after narcotized euthanasia samples of liver tissue from central and right side lobes were taken. The liver samples were fixated by mixture of formalin, alcohol and acetic acid. […] The van-Gison stained samples where collagen fibers had red color were used for the study. […] By number of pixels forming the selected objects a relative square occupied by developed collagen (connective tissue) in the liver tissue was calculated. The measurement results were statistically processed. The difference significance between mean samples using the Student criterion with significance level of p=0.05. The morphological alterations were assessed on the samples with blind marking reducing risk of aggravation of the study results. The pathologic process and agent efficacy were assessed by clinical signs (weight, appearance, ascites, motional activity, death) as well as morphologic ones after animal necropsy with following morphologic liver sample examination. After development of pathologic process, i.e. in 4 weeks after the DMNA introduction onset, all animals were randomized in 4 groups of 12 animals in each. […] The agents were introduced every other day intramuscularly, in femur muscle.
# hepatitis C virus (HCV) = assay: Efficacy study in chronic viral hepatitis C, 74 patients (Tables 54-55)
# hepatitis B virus (HBV) = assay: Efficacy study in acute viral hepatitis B with severe course, 35 patients (Tables 50-53); assay type: in vivo, human
# From the text: State of patient upon completion of treatment.
# [2] = month 2 (1 month after treatment)
# [3] = month 4 (3 months after treatment)
smiles,measurement,setting,value
"C[S+](CC[C@H](N)C(=O)[O-])C[C@H]1O[C@@H](n2cnc3c(N)ncnc32)[C@H](O)[C@@H]1O (some centres unmarked) [Heptral, S-adenosyl-methionine]",Rat weight,[1]; 1 treatment week,191.0 g
same,Rat weight,[1]; 3 treatment weeks,212 g
same,Relative square of the connective tissue in a liver section,[1]; 3 weeks after cirrhosis modeling completion,8.215 ± 0.751%
same,Collagen amount lowered comparing to the normal saline control (times),[1]; 6-week dosing,1.7 times
same,Rat weight,[1]; 6 treatment weeks,232 g
same,Relative square of the connective tissue in a liver section,[1]; 6 weeks after cirrhosis modeling completion,7.781 ± 0.943 %
same,Decrease of liver fibrosis-formation rate,[1]; comparison agent,35%
same,Collagen amount lowered comparing to the normal saline control (times),[1]; treatment for 3 weeks,1.1 times
Cc1cn([C@H]2C[C@H](N=[N+]=[N-])[C@@H](CO)O2)c(=O)[nH]c1=O [Zidovudine],PCR (%) in Chronic HCV Infection,hepatitis C virus (HCV); Baseline (before treatment),100%
same,PCR (%) in Chronic HCV Infection,hepatitis C virus (HCV); month 1 (after treatment),**54.5* %
same,PCR (%) in Chronic HCV Infection,hepatitis C virus (HCV); [2],**63.6* %
same,PCR (%) in Chronic HCV Infection,hepatitis C virus (HCV); [3],**59.1* %
C[C@]12C=CC(=O)C=C1CC[C@@H]1[C@@H]2[C@@H](O)C[C@@]2(C)[C@H]1CC[C@]2(O)C(=O)CO [Prednisolone],ALT in Severe HBV Infection,hepatitis B virus (HBV); Baseline (before treatment),1657.9 ± 96.5 U/L
same,Bilirubin in Severe HBV Infection,hepatitis B virus (HBV); Baseline (before treatment),313.9 ± 62.6 µmol/L
same,HbsAg in Severe HBV Infection,hepatitis B virus (HBV); Baseline (before treatment),189.7 ± 20.4 ng/mL
same,PCR (%) in Severe HBV Infection,hepatitis B virus (HBV); Baseline (before treatment),100%
same,ALT in Severe HBV Infection,hepatitis B virus (HBV); month 1 (after treatment),**293.8 ± 18.8 U/L
same,Bilirubin in Severe HBV Infection,hepatitis B virus (HBV); month 1 (after treatment),**86.9 ± 21.9 μmole/L
same,HbsAg in Severe HBV Infection,hepatitis B virus (HBV); month 1 (after treatment),**97.8 ± 18.6 ng/mL
same,PCR (%) in Severe HBV Infection,hepatitis B virus (HBV); month 1 (after treatment),**66.7%
same,ALT in Severe HBV Infection,hepatitis B virus (HBV); [2],**145.4 ± 15.5 U/L
same,Bilirubin in Severe HBV Infection,hepatitis B virus (HBV); [2],**31.4 ± 14.6 μmole/L
same,HbsAg in Severe HBV Infection,hepatitis B virus (HBV); [2],**87.7 ± 12.7 ng/mL
same,PCR (%) in Severe HBV Infection,hepatitis B virus (HBV); [2],**66.7%
same,ALT in Severe HBV Infection,hepatitis B virus (HBV); [3],**65.3 ± 15.7 U/L
same,Bilirubin in Severe HBV Infection,hepatitis B virus (HBV); [3],**26.84 ± 13.99 μmole/L
same,HbsAg in Severe HBV Infection,hepatitis B virus (HBV); [3],**76.6 ± 15.4 ng/mL
same,PCR (%) in Severe HBV Infection,hepatitis B virus (HBV); [3],**53.3%
Nc1ccn([C@H]2CC[C@@H](CO)O2)c(=O)n1 [Hivid],ALT in Chronic HCV Infection,hepatitis C virus (HCV); Baseline (before treatment),187.5 ± 48.4 U/L
same,ALT in Chronic HCV Infection,hepatitis C virus (HCV); month 1 (after treatment),**190 ± 71.1 U/L
same,ALT in Chronic HCV Infection,hepatitis C virus (HCV); [2],**153 ± 25.3 U/L
same,ALT in Chronic HCV Infection,hepatitis C virus (HCV); [3],**151 ± 25.2 U/L
